# According to patent US20250197393A1, “INTEGRIN INHIBITOR AND USES THEREOF” (Pliant Therapeutics, Inc., priority 2023, published 2025):
# Structures can show the parent of a compound that is named as a salt.
# Columns and labels:
# Format in all cases: physicochemical
# [1] = Water activity experiments in MeOH/water (relative stability of hydrate Pattern A and hydrate Pattern B); settings: methanol/water
# Method: The relative stability of the hydrate Pattern A and the hydrate Pattern B was investigated using water activity experiments in MeOH/water systems. About 5 mg of (S)-4-((2-methoxyethyl)(4-(5,6,7,8-tetrahydro-1,8-naphthyridin-2-yl)butyl)amino)-2-(quinazolin-4-ylamino)butanoic acid L-tartaric acid cocrystal Pattern A and 5 mg of (S)-4-((2-methoxyethyl)(4-(5,6,7,8-tetrahydro-1,8-naphthyridin-2-yl)butyl)amino)-2-(quinazolin-4-ylamino)butanoic acid L-tartaric acid cocrystal Pattern B were added to 0.1-0.5 mL saturated solutions of the methanol/water system. Obtained suspensions were stirred at 5° C., 25° C. and 50° C. for up to 21 days, respectively. Solid parts (wet cakes) were isolated by centrifugation filtration and investigated by XRPD.
# [2] = Equilibration of Pattern C suspension in IPA/water at 5° C.; settings: IPA/water mixture, equilibration at 5° C., after 3 days
# Method: Method 2: (S)-4-((2-methoxyethyl)(4-(5,6,7,8-tetrahydro-1,8-naphthyridin-2-yl)butyl)amino)-2-(quinazolin-4-ylamino)butanoic acid L-tartaric acid cocrystal Pattern C was prepared using the following procedure. 200 mg of (S)-4-((2-methoxyethyl)(4-(5,6,7,8-tetrahydro-1,8-naphthyridin-2-yl)butyl)amino)-2-(quinazolin-4-ylamino)butanoic acid L-tartaric acid cocrystal Pattern A (see Example 1) was dissolved in 1.8 mL of IPA/water (7:3, v:v) at 50° C. The obtained thin suspension was filtered through a 0.45 μm syringe membrane filter to obtain a clear solution. The clear solution was cooled to 5° C. at 0.1° C./min after stirring at 50° C. for about 30 min. After stirred at 5° C. for about 2 days, a suspension was obtained. Solids were collected by centrifugation and investigated by XRPD. A low crystallinity Pattern C was obtained.
# The suspension was kept stirring at 5° C. for another 3 days. Solids were collected by centrifugation and investigated by XRPD. A low crystalline Pattern B was obtained.
# [3] = Bulk stability of solid under temperature/humidity stress (HPLC, appearance, XRPD); settings: for Bulk appearance (color change / deliquescence): Solid state, open container, 1 week
# [4] = as above
# Method: Bulk stability of (S)-4-((2-methoxyethyl)(4-(5,6,7,8-tetrahydro-1,8-naphthyridin-2-yl)butyl)amino)-2-(quinazolin-4-ylamino)butanoic acid L-tartaric acid cocrystal Pattern A was evaluated at 25° C./92.5% RH in an open container, at 40° C./75% RH in an open container, and at 60° C. in a closed container over 1 week and 4 weeks.
# However, it became deliquescent after being stressed at 25° C./92.5% RH in an open container and at 40° C./75% RH in an open container after 1 week.
# [5] = Solubility at 37° C. in aqueous and biorelevant media; settings: for Solubility (mg/ mL) 2 h / Solubility (mg/ mL) 24 h: target 250 mg/mL (in free form)
# Method: To prepare the samples of (S)-4-((2-methoxyethyl)(4-(5,6,7,8-tetrahydro-1,8-naphthyridin-2-yl)butyl)amino)-2-(quinazolin-4-ylamino)butanoic acid L-tartaric acid cocrystal Pattern A, 80.6 mg was weighed into a 2 mL glass vial. Next, 0.18 mL of solubility medium was added. The salt amount used is equivalent to 45 mg of the amorphous free form. Obtained suspensions/solutions were stirred at 37° C. at 400 rpm and sampled at 2 h and at 24 h. The samples were centrifuged at 37° C. at 14,000 rpm for 5 min. Supernatants were analyzed by HPLC and pH meter for solubility and pH value, respectively. […]
# [6] = Solid state, 60° C., closed container, 1 week
# [7] = pH 4.5 acetate buffer (50 mM), 37° C.
# [8] = pH 6.8 phosphate buffer (50 mM), 37° C.
smiles,measurement,setting,value
"COCCN(CCCCc1ccc2c(n1)NCCC2)CC[C@H](Nc1ncnc2ccccc12)C(=O)O [Pattern B, (S)-4-((2-methoxyethyl)(4-(5,6,7,8-tetrahydro-1,8-naphthyridin-2-yl)butyl)amino)-2-(quinazolin-4-ylamino)butanoic acid]",water activity (a.w.) at which the pattern was obtained,[1]; 5° C.,1.0
same,water activity (a.w.) at which the pattern was obtained,[1]; 25° C.,1.0
"COCCN(CCCCc1ccc2c(n1)NCCC2)CC[C@H](Nc1ncnc2ccccc12)C(=O)O [Pattern C, (S)-4-((2-methoxyethyl)(4-(5,6,7,8-tetrahydro-1,8-naphthyridin-2-yl)butyl)amino)-2-(quinazolin-4-ylamino)butanoic acid]",form conversion,[2],converts to Pattern B
"COCCN(CCCCc1ccc2c(n1)NCCC2)CC[C@H](Nc1ncnc2ccccc12)C(=O)O [Phosphate salt, hydrate, (S)-4-((2-methoxyethyl)(4-(5,6,7,8-tetrahydro-1,8-naphthyridin-2-yl)butyl)amino)-2-(quinazolin-4-ylamino)butanoic acid, reference compound]",purity decrease,"[3]; 40° C./75% RH in an open container, 4 weeks",2.5%
same,Bulk appearance (color change / deliquescence),[3]; 25° C./92.5% RH,deliquescent
same,Bulk appearance (color change / deliquescence),[3]; 40° C./75% RH,deliquescent
same,purity decrease,"[4]; 25° C./92.5% RH in an open container, 4 weeks",0.6%
same,physical stability,[4]; 60° C. in a closed container over 4 weeks,physically stable
same,purity decrease,"[4]; 60° C. in a closed container, 4 weeks",1.1%
same,"Bulk (HPLC) purity, 316 nm","[4]; Solid state, 25° C./92.5% RH, open container, 1 week",99.7%
same,"Bulk (HPLC) purity, 316 nm","[4]; Solid state, 25° C./92.5% RH, open container, 4 weeks",99.2%
same,"Bulk (HPLC) purity, 316 nm","[4]; Solid state, 40° C./75% RH, open container, 1 week",98.7%
same,"Bulk (HPLC) purity, 316 nm","[4]; Solid state, 40° C./75% RH, open container, 4 weeks",97.3%
same,"Bulk (HPLC) purity, 316 nm",[4]; [6],99.3%
same,Bulk (XRPD),[4]; [6],No form change
same,"Bulk (HPLC) purity, 316 nm","[4]; Solid state, 60° C., closed container, 4 weeks",98.7%
same,pH of supernatant at 24 h,"[5]; FaSSGF, pH 1.6, 37° C.",(5.8)
same,Solubility (mg/ mL) 2 h,"[5]; FaSSGF, pH 1.6, 37° C.",>247 mg/mL
same,Solubility (mg/ mL) 24 h,"[5]; FaSSGF, pH 1.6, 37° C.",>247 mg/mL
same,pH of supernatant at 24 h,"[5]; FaSSIF-v1, pH 6.5, 37° C.",(5.9)
same,Solubility (mg/ mL) 2 h,"[5]; FaSSIF-v1, pH 6.5, 37° C.",>213 mg/mL
same,Solubility (mg/ mL) 24 h,"[5]; FaSSIF-v1, pH 6.5, 37° C.",>214 mg/mL
same,pH of supernatant at 24 h,"[5]; FeSSIF-v1, pH 5.0, 37° C.",(5.8)
same,Solubility (mg/ mL) 2 h,"[5]; FeSSIF-v1, pH 5.0, 37° C.",>214 mg/mL
same,Solubility (mg/ mL) 24 h,"[5]; FeSSIF-v1, pH 5.0, 37° C.",>218 mg/mL
same,pH of supernatant at 24 h,"[5]; Water, 37° C.",(5.8)
same,Solubility (mg/ mL) 2 h,"[5]; Water, 37° C.",>247 mg/mL
same,Solubility (mg/ mL) 24 h,"[5]; Water, 37° C.",>247 mg/mL
same,pH of supernatant at 24 h,"[5]; pH 1.2 HCl buffer, 37° C.",(1.6)
same,Solubility (mg/ mL) 2 h,"[5]; pH 1.2 HCl buffer, 37° C.",>208 mg/mL
same,Solubility (mg/ mL) 24 h,"[5]; pH 1.2 HCl buffer, 37° C.",>208 mg/mL
same,pH of supernatant at 24 h,[5]; [7],(4.8)
same,Solubility (mg/ mL) 2 h,[5]; [7],>228 mg/mL
same,Solubility (mg/ mL) 24 h,[5]; [7],>228 mg/mL
same,pH of supernatant at 24 h,[5]; [8],(6.7)
same,Solubility (mg/ mL) 2 h,[5]; [8],>229 mg/mL
same,Solubility (mg/ mL) 24 h,[5]; [8],>229 mg/mL
